Structures can show the parent of a compound that is named as a salt. Where two headings read alike, the source gives them in different places.
What was measured:
[1] = biological target: Human MET (residues 956-1390) (Homo sapiens (Human), UniProt P08581); experiment: Human Met kinase assay, HTRF KinEase (Example D-2); format: biochemical; conditions: read-out: c-Met IC50
Description: (§1) Kinase activity and compound inhibition were also investigated using the HTRF® KinEase assay (Cisbio Cat #62TKOPEB) per manufacturer's instructions. In short, compounds were delivered in 300 nL volumes at 10 different concentrations in DMSO (3% final) to empty 384-well assay plates (Corning cat #3824). A mixture of enzyme, […] biotynlated peptide substrate, and buffer in 10 μL volume was added. The assay was started upon the addition of ATP (at Km). The 10 μL reaction was incubated at room temperature. The reaction was stopped upon the addition of detection buffer containing streptavidin-XL665 ([…]) and TK antibody-Eu3+([…]). After a 60 min incubation at room temperature, the fluorescence at 665 nm and 620 nm was read on an Envision microplate reader (Perkin Elmer).
(§2) Kinase activity normalized to DMSO (100% activity) and reference compound at […] and (0% activity) was calculated using the fluorescence ratio […]. IC50 values were calculated by nonlinear regression analysis using a 4-parameter logistic curve fit in ActivityBase XE (IDBS).
Example D-2: Human MET (residues 956-1390; CarnaBio, 0.1 ng/well) was also incubated with enzymatic buffer (Cisbio) supplemented with 5 mM MgCl2, 1 mM DTT and 1 mM MnCl2. The mixture was added to the pre-plated compounds. […] The reaction was incubated at room temperature for 40 min and stopped upon the addition of SA-XL665 and TK-antibody both diluted in EDTA-containing kinase detection buffer (Cisbio). The kinase activity was calculated as stated above and the IC50 values were reported.

[2] = biological target: Met (phospho-Met, HGF-stimulated PC-3 prostate cancer cells) (Homo sapiens (Human), UniProt P08581); experiment: Met autophosphorylation ELISA in PC-3 cells (Example F); format: cell-based; conditions: cellular activity; Met autophosphorylation ELISA in PC-3 cells; read-out: c-Met IC50
Chain of Met (phospho-Met, HGF-stimulated PC-3 prostate cancer cells) (P08581 25-1390): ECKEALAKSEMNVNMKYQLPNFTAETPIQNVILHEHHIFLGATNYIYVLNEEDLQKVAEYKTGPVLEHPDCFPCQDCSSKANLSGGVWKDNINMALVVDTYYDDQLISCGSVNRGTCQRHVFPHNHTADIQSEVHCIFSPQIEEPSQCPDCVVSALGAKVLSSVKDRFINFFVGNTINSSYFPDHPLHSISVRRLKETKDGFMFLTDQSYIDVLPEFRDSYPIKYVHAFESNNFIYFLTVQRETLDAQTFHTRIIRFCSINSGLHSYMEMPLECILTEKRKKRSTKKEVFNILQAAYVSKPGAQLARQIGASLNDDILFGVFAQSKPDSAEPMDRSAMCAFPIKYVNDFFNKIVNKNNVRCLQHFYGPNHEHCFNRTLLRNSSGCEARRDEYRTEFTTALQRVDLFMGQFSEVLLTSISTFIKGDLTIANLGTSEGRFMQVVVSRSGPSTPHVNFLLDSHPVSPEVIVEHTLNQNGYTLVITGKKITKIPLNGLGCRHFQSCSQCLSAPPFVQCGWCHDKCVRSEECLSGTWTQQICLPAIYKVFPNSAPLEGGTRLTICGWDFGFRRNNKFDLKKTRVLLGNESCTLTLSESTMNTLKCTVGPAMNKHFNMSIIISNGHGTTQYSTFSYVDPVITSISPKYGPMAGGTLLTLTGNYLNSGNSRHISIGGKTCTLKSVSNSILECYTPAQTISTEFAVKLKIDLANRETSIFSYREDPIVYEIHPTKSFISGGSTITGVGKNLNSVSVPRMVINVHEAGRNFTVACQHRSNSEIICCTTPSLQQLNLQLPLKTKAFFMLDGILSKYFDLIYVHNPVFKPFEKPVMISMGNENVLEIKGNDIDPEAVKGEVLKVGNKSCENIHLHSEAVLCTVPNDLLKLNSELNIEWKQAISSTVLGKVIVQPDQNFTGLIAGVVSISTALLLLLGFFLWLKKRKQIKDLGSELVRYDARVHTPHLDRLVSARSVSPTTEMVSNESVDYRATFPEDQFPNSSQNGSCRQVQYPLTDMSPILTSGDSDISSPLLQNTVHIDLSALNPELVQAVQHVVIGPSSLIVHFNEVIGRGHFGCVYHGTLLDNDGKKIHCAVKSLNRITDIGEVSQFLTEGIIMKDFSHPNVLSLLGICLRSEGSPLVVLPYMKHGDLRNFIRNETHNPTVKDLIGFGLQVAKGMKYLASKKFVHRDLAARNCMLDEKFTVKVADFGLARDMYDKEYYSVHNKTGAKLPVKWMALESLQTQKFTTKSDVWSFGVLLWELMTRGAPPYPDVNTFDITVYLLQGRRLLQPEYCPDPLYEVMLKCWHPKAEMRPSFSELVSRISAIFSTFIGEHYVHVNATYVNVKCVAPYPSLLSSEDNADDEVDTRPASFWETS
In short: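 Compounds were tested on HGF-stimulated PC-3 cells. After 24 h culture and 3 h serum starvation, cells got compound for 1 h and 100 ng/mL HGF for 10 min, and Met tyrosine phosphorylation was measured by ELISA.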

[3] = biological target: KDR (phospho-KDR, VEGF165-stimulated HUVEC cells) (Homo sapiens (Human), UniProt P35968); experiment: KDR autophosphorylation ELISA in HUVEC cells (Example G); format: cell-based; conditions: cellular activity; KDR autophosphorylation ELISA in HUVEC cells
Chain of KDR (phospho-KDR, VEGF165-stimulated HUVEC cells) (P35968 20-1356): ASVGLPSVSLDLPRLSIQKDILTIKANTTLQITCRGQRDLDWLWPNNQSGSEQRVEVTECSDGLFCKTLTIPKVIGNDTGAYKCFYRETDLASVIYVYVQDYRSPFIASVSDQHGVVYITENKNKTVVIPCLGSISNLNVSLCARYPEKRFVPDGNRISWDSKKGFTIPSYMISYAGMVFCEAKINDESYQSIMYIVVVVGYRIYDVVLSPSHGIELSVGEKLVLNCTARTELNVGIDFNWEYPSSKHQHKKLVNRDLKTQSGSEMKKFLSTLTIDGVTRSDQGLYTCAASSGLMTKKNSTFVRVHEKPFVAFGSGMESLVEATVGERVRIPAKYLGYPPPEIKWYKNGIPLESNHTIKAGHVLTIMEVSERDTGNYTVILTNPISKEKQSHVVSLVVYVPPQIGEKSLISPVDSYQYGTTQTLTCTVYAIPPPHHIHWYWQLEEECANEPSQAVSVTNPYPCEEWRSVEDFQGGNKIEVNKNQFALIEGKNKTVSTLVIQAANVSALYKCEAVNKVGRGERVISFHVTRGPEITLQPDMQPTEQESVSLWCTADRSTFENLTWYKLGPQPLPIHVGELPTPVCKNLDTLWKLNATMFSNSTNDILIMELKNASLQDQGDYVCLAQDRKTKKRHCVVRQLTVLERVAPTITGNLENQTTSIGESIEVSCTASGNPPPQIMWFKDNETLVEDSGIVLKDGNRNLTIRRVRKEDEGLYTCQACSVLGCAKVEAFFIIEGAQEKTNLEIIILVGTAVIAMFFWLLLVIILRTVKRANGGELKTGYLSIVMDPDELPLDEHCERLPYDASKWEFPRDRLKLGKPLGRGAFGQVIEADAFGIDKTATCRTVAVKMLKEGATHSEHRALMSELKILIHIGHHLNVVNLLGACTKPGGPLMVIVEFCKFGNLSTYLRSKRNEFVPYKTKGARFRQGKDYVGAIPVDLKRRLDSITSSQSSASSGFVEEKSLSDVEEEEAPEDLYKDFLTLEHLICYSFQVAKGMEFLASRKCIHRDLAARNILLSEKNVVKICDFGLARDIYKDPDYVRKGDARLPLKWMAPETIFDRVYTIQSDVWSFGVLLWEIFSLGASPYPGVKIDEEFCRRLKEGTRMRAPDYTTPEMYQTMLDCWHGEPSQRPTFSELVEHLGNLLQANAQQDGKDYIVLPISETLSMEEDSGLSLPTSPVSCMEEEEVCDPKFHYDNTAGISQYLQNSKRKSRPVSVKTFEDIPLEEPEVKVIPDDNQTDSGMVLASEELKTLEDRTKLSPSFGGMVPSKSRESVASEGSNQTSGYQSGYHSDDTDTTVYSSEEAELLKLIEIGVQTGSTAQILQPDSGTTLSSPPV
In short: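 Cells seeded, grown 24 h at 37 °C, starved 24 h serum-free; cpd 8-pt curve, 0.3% DMSO, 1 h; VEGF165 100 ng/mL, 5 min; cold PBS wash, lysis with orthovanadate and protease/phosphatase inhibitors; pKDR ELISA; IC50 by 4-parameter logistic regression.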

[4] = biological target: Mer (phospho-Mer, MERTK-transfected 293A cells) (Homo sapiens (Human), UniProt Q12866); experiment: Mer autophosphorylation ELISA in transient transfected 293A cells (Example H); format: cell-based; conditions: cellular activity; Mer autophosphorylation ELISA in transient transfected 293A cells
Chain of Mer (phospho-Mer, MERTK-transfected 293A cells) (Q12866 21-999): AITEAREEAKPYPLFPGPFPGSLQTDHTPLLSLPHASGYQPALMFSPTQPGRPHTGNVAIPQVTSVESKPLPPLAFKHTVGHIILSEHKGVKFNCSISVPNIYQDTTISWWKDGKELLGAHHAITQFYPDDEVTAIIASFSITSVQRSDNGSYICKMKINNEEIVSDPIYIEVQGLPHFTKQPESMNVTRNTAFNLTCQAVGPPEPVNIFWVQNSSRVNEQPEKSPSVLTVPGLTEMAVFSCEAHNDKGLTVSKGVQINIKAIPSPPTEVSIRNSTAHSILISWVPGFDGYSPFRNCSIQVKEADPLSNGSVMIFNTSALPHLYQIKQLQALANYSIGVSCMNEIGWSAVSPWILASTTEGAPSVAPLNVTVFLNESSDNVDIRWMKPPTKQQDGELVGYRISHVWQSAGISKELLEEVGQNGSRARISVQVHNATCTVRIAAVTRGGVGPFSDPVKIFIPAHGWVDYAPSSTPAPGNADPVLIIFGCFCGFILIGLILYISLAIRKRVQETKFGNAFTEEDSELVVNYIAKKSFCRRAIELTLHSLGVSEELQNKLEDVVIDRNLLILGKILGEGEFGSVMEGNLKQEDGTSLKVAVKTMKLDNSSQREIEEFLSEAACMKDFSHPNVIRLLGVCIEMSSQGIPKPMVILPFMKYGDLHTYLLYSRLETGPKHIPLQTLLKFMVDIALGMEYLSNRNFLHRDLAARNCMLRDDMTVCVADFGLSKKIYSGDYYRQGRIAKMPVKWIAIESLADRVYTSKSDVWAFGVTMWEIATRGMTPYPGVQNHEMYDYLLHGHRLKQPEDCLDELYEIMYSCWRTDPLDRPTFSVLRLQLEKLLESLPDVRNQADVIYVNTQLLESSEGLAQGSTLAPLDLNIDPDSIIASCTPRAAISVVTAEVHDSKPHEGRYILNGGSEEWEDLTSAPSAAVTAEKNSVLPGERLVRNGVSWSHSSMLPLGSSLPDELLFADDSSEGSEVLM
In short: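 Inhibition of cellular Mer autophosphorylation is determined in 293A cells transiently expressing human MERTK after 1 h compound exposure (8 concentrations, serum-free, 0.3% DMSO). Phospho-Mer in clarified lysates is measured by ELISA, with DMSO and reference-inhibitor wells defining the 100% and 0% activity limits.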

[5] = biological target: Human MER (residues 528-999) (Homo sapiens (Human), UniProt Q12866); experiment: Human Mer kinase assay, HTRF KinEase (Example C-2); format: biochemical
Chain of Human MER (residues 528-999) (Q12866 528-999): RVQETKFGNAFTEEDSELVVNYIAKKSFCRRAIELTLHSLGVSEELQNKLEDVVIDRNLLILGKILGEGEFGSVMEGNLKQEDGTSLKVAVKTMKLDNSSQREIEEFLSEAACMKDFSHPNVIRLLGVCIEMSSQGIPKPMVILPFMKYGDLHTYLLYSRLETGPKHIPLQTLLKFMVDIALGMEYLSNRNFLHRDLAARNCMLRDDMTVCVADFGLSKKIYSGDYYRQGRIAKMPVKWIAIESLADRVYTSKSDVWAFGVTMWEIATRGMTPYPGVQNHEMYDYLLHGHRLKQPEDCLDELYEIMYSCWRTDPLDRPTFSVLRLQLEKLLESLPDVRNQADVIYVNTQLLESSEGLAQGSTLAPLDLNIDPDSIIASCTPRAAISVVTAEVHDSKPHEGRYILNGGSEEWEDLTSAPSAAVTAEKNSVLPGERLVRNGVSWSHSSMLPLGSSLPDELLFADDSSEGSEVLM
Description: as §1, §2
Example C-2: Human MER (residues 528-999; CarnaBio, 1 ng/well) was also incubated with enzymatic buffer (Cisbio) supplemented with 5 mM MgCl2 and 1 mM DTT. The mixture was added to the pre-plated compounds. The reaction was initiated upon addition of ATP at Km (40 μM). The reaction was incubated at room temperature for 60 min and stopped upon the addition of SA-XL665 and TK-antibody both diluted in EDTA-containing kinase detection buffer (Cisbio). The kinase activity was calculated as stated above and the IC50 values were reported.

[6] = protocol of Example D-2 (other compounds)

Chain of Human MET (residues 956-1390) (P08581 956-1390): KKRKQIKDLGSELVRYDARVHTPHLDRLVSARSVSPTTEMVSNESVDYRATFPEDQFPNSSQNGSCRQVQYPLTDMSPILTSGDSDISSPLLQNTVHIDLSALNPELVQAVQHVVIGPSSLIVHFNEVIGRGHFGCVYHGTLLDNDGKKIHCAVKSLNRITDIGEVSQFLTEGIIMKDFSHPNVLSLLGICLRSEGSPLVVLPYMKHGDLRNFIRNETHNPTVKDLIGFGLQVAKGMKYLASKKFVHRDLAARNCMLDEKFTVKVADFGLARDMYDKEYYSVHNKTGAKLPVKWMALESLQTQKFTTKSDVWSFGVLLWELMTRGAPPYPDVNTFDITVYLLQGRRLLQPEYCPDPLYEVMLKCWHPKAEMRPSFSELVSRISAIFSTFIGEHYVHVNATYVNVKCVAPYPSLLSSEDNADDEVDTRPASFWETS

Compound	IC50 ([1]; protocol of Example D-2)	IC50 [2]	IC50 [3]	IC50 [4]	IC50 [1, 6]	IC50 ([5]; protocol of Example C-2)	IC50 ([5]; protocol of Example C-2 (other compounds))
COc1nc2c(Oc3ccc(NC(=O)c4cn(C(C)C)cc(-c5ccc(F)cc5)c4=O)cc3F)ccnc2cc1-c1cccnc1 [Compound 605, N-[3-Fluoro-4-[(6-methoxy-7-pyridin-3-yl-1,5-naphthyridin-4-yl)oxy]phenyl]-5-(4-fluorophenyl)-4-oxo-1-propan-2-ylpyridine-3-carboxamide hydrochloride]	< 100 nM	< 100 nM	100 to 300 nM	< 100 nM		< 100 nM	
COc1cnc2c(Oc3ccc(NC(=O)c4c(C)nc(C)c(-c5ccc(F)cc5)c4O)cc3)ccnc2c1 [Compound 158, 5-(4-Fluorophenyl)-4-hydroxy-N-[4-[(7-methoxy-1,5-naphthyridin-4-yl)oxy]phenyl]-2,6-dimethylpyridine-3-carboxamide]		< 100 nM	< 100 nM	< 100 nM	< 100 nM		
Cc1ncc(C(=O)Nc2ccc(Oc3ccnc4cc(Br)cnc34)c(F)c2)c(O)c1-c1ccc(F)cc1 [Compound 133, N-[4-[(7-Bromo-1,5-naphthyridin-4-yl)oxy]-3-fluorophenyl]-5-(4-fluorophenyl)-4-hydroxy-6-methylpyridine-3-carboxamide]		100 to 300 nM	100 to 300 nM	100 to 300 nM	< 100 nM		
COc1cc2nccc(Oc3ccc(NC(=O)c4cn(CCn5ccnc5)cc(-c5ccc(F)cc5)c4=O)cc3F)c2nc1OC [Compound 159, N-[4-[(6,7-Dimethoxy-1,5-naphthyridin-4-yl)oxy]-3-fluorophenyl]-5-(4-fluorophenyl)-1-(2-imidazol-1-ylethyl)-4-oxopyridine-3-carboxamide]		100 to 300 nM	> 300 nM	< 100 nM	< 100 nM		
COc1cc2nccc(Oc3ccc(NC(=O)c4cn(O)cc(-c5ccc(F)cc5)c4=O)cc3F)c2nc1OC [Compound 134, N-[4-[(6,7-Dimethoxy-1,5-naphthyridin-4-yl)oxy]-3-fluorophenyl]-5-(4-fluorophenyl)-1-hydroxy-4-oxopyridine-3-carboxamide]		> 300 nM	< 100 nM	100 to 300 nM	< 100 nM		
CNC(=O)c1cc2c(Oc3ccc(NC(=O)c4cnc(C)c(-c5ccc(F)cc5)c4O)cc3)ccnc2cc1OC [Compound 540, 4-[4-[[5-(4-fluorophenyl)-4-hydroxy-6-methylpyridine-3-carbonyl]amino]phenoxy]-7-methoxy-N-methylquinoline-6-carboxamide]	< 100 nM	100 to 300 nM	< 100 nM	< 100 nM			
COc1cc2nccc(Oc3ccc(NC(=O)c4cn(C5CN(C(=O)OC(C)(C)C)C5)cc(-c5ccc(F)cc5)c4=O)cc3F)c2nc1OC [Compound 114, tert-Butyl 3-[3-[[4-[(6,7-dimethoxy-1,5-naphthyridin-4-yl)oxy]-3-fluorophenyl]carbamoyl]-5-(4-fluorophenyl)-4-oxopyridin-1-yl]azetidine-1-carboxylate]					< 100 nM		
COc1nc2c(Oc3ccc(NC(=O)c4cn(C(C)C)cc(-c5ccc(F)cc5)c4=O)cc3F)ccnc2cc1-c1cnn(C(F)F)c1 [Compound 608, N-[4-[[7-[1-(Difluoromethyl)pyrazol-4-yl]-6-methoxy-1,5-naphthyridin-4-yl]oxy]-3-fluorophenyl]-5-(4-fluorophenyl)-4-oxo-1-propan-2-ylpyridine-3-carboxamide]	< 100 nM	< 100 nM	< 100 nM	< 100 nM			
COc1cnc2c(Oc3ccc(NC(=O)c4cn(C(C)C)cc(-c5ccc(F)cc5)c4=O)cc3)ccnc2c1 [Compound 145, 5-(4-Fluorophenyl)-N-[4-[(7-methoxy-1,5-naphthyridin-4-yl)oxy]phenyl]-4-oxo-1-propan-2-ylpyridine-3-carboxamide]		< 100 nM		< 100 nM	< 100 nM		
COc1nc2c(Oc3ccc(NC(=O)c4cnc(C)c(-c5ccc(F)cc5)c4O)cc3F)ccnc2cc1-c1cnn(C(F)F)c1 [Compound 607, N-[4-[[7-[1-(Difluoromethyl)pyrazol-4-yl]-6-methoxy-1,5-naphthyridin-4-yl]oxy]-3-fluorophenyl]-5-(4-fluorophenyl)-4-hydroxy-6-methylpyridine-3-carboxamide]	< 100 nM	< 100 nM	< 100 nM	< 100 nM			
COc1cc2nccc(Oc3ccc(NC(=O)c4cn(-c5cnn(C)c5)cc(-c5ccc(F)cc5)c4=O)cc3F)c2nc1OC [Compound 51, N-[4-[(6,7-Dimethoxy-1,5-naphthyridin-4-yl)oxy]-3-fluorophenyl]-5-(4-fluorophenyl)-1-(1-methylpyrazol-4-yl)-4-oxopyridine-3-carboxamide]		< 100 nM	> 300 nM	< 100 nM	< 100 nM		
COc1cc2nccc(Oc3ccc(NC(=O)c4cn(C5CCC5)cc(-c5ccc(F)cc5)c4=O)cc3F)c2nc1OC [Compound 50, 1-Cyclobutyl-N-[4-[(6,7-dimethoxy-1,5-naphthyridin-4-yl)oxy]-3-fluorophenyl]-5-(4-fluorophenyl)-4-oxopyridine-3-carboxamide]		< 100 nM	100 to 300 nM	< 100 nM	< 100 nM		

Now from value to compound:

IC50 ([1]; protocol of Example D-2)	IC50 [2]	IC50 [3]	IC50 [4]	IC50 [1, 6]	IC50 ([5]; protocol of Example C-2)	IC50 ([5]; protocol of Example C-2 (other compounds))	Compound
< 100 nM	< 100 nM	< 100 nM	< 100 nM				COc1nc2c(Oc3ccc(NC(=O)c4cnc(C)c(-c5ccc(F)cc5)c4O)cc3F)ccnc2cc1-c1cccnc1 [Compound 604, N-[3-Fluoro-4-[(6-methoxy-7-pyridin-3-yl-1,5-naphthyridin-4-yl)oxy]phenyl]-5-(4-fluorophenyl)-4-hydroxy-6-methylpyridine-3-carboxamide hydrochloride]
	< 100 nM	100 to 300 nM	< 100 nM	< 100 nM			COc1cc2nccc(Oc3ccc(NC(=O)c4cn(N=C(N(C)C)N(C)C)cc(-c5ccc(F)cc5)c4=O)cc3F)c2nc1OC [Compound 137, 1-[bis(Dimethylamino)methylideneamino]-N-[4-[(6,7-dimethoxy-1,5-naphthyridin-4-yl)oxy]-3-fluorophenyl]-5-(4-fluorophenyl)-4-oxopyridine-3-carboxamide]
< 100 nM	< 100 nM	100 to 300 nM	< 100 nM		< 100 nM		COc1nc2c(Oc3ccc(NC(=O)c4cn(C(C)C)c(C)c(-c5ccc(F)cc5)c4=O)cc3F)ccnc2cc1-c1cccnc1 [Compound 606, N-[3-Fluoro-4-[(6-methoxy-7-pyridin-3-yl-1,5-naphthyridin-4-yl)oxy]phenyl]-5-(4-fluorophenyl)-6-methyl-4-oxo-1-propan-2-ylpyridine-3-carboxamide hydrochloride]
	< 100 nM	> 300 nM	< 100 nM	< 100 nM		< 100 nM	COc1ccc2nccc(Oc3ccc(NC(=O)c4cn(C(C)C)c(C)c(-c5ccc(F)cc5)c4=O)cc3F)c2n1 [Compound 110, N-[3-Fluoro-4-[(6-methoxy-1,5-naphthyridin-4-yl)oxy]phenyl]-5-(4-fluorophenyl)-6-methyl-4-oxo-1-propan-2-ylpyridine-3-carboxamide]
	< 100 nM	> 300 nM	< 100 nM	< 100 nM			COc1cc2nccc(Oc3ccc(NC(=O)c4cn(CC(F)(F)F)cc(-c5ccc(F)cc5)c4=O)cc3F)c2nc1OC [Compound 49, N-[4-[(6,7-Dimethoxy-1,5-naphthyridin-4-yl)oxy]-3-fluorophenyl]-5-(4-fluorophenyl)-4-oxo-1-(2,2,2-trifluoroethyl)pyridine-3-carboxamide]

Reference: US12371428B2 (Exelixis, Inc., priority 2019, dated 2025)
